Data from patent US8124633B2, “Hydroxymethyl ether hydroisoindoline tachykinin receptor antagonists” (Merck Sharp & Dohme Corp., priority 2007, dated 2012).

Target: T1, human neurokinin-1 receptor (NK1R) (Homo sapiens, UniProt P25103)
T1 construct: the cDNA for the human NK1R was cloned into the expression vector pCDM9; expressed in transfected cells
Test: Binding assay of human NK1R expressed in COS or CHO cells (125I-substance P competition)
Details: for IC50: 125I-substance P binding to human NK1R expressed in COS or CHO cells
Protocol: Receptor Expression in COS: To express the cloned human neurokinin-1 receptor (NK1R) transiently in COS, the cDNA for the human NK1R was cloned into the expression vector pCDM9 which was derived from pCDM8 (INVITROGEN) by inserting the ampicillin resistance gene (nucleotide 1973 to 2964 from BLUESCRIPT SK+) into the Sac II site. Transfection of 20 ug of the plasmid DNA into 10 million COS cells was achieved by electroporation in 800 ul of transfection buffer (135 mM NaCl, 1.2 mM CaCl2, 1.2 mM MgCl2, 2.4 mM K2HPO4, 0.6 mM KH2PO4, 10 mM glucose, 10 mM HEPES pH 7.4) at 260 V and 950 uF using the IBI GENEZAPPER (1131, New Haven, Conn.). The cells were incubated in 10% fetal calf serum, 2 mM glutamine, 100 U/ml penicillin-streptomycin, and 90% DMEM media (GIBCO, Grand Island, N.Y.) in 5% CO2 at 37° C. for three days before the binding assay.
Stable Expression in CHO: To establish a stable cell line expressing the cloned human NK1R, the cDNA was subcloned into the vector pRcCMV (INVITROGEN). Transfection of 20 ug of the plasmid DNA into CHO cells was achieved by electroporation in 800 ul of transfection buffer supplemented with 0.625 mg/ml Herring sperm DNA at 300 V and 950 uF using the IBI GENEZAPPER (IBI). The transfected cells were incubated in CHO media [10% fetal calf serum, 100 U/ml penicillin-streptomycin, 2 mM glutamine, 1/500 hypoxanthine-thymidine (ATCC), 90% IMDM media (JRH BIOSCIENCES, Lenexa, Kans.), 0.7 mg/ml G418 (GIBCO)] in 5% CO2 at 37° C. until colonies were visible. Each colony was separated and propagated. The cell clone with the highest number of human NK1R was selected for subsequent applications such as drug screening.
Assay Protocol using COS or CHO: The binding assay of human NK1R expressed in either COS or CHO cells is based on the use of ^125I-substance P (^125I-SP, from DU PONT, Boston, Mass.) as a radioactively labeled ligand which competes with unlabeled substance P or any other ligand for binding to the human NK1R. Monolayer cell cultures of COS or CHO were dissociated by the non-enzymatic solution (SPECIALTY MEDIA, Lavallette, N.J.) and resuspended in appropriate volume of the binding buffer (50 mM Tris pH 7.5, 5 mM MnCl2, 150 mM NaCl, 0.04 mg/ml bacitracin, 0.004 mg/ml leupeptin, 0.2 mg/ml BSA, 0.01 mM phosphoramidon) such that 200 ul of the cell suspension would give rise to about 10,000 cpm of specific ^125I-SP binding (approximately 50,000 to 200,000 cells). In the binding assay, 200 ul of cells were added to a tube containing 20 ul of 1.5 to 2.5 nM of ^125I-SP and 20 ul of unlabeled substance P or any other test compound. The tubes were incubated at 4° C. or at room temperature for 1 hour with gentle shaking. The bound radioactivity was separated from unbound radioactivity by GF/C filter (BRANDEL, Gaithersburg, Md.) which was pre-wetted with 0.1% polyethylenimine. The filter was washed with 3 ml of wash buffer (50 mM Tris pH 7.5, 5 mM MnCl2, 150 mM NaCl) three times and its radioactivity was determined by gamma counter. The activation of phospholipase C by NK1R may also be measured in CHO cells expressing the human NK1R by determining the accumulation of inositol monophosphate which is a degradation product of IP3. CHO cells are seeded in 12-well plate at 250,000 cells per well. After incubating in CHO media for 4 days, cells are loaded with 0.025 uCi/ml of 3H-myoinositol by overnight incubation. The extracellular radioactivity is removed by washing with phosphate buffered saline. LiCl is added to the well at final concentration of […] with or without the test compound, and incubation is continued at 37° C. for […]. Substance P is added to the well at final concentration of 0.3 nM to activate the human NK1R. After 30 min of incubation at 37° C., the media is removed and 0.1 N HCl is added. Each well is sonicated at 4° C. and extracted with CHCl3/methanol (1:1). The aqueous phase is applied to a 1 ml Dowex AG 1×8 ion exchange column. […]

T1 sequence (P25103 whole entry): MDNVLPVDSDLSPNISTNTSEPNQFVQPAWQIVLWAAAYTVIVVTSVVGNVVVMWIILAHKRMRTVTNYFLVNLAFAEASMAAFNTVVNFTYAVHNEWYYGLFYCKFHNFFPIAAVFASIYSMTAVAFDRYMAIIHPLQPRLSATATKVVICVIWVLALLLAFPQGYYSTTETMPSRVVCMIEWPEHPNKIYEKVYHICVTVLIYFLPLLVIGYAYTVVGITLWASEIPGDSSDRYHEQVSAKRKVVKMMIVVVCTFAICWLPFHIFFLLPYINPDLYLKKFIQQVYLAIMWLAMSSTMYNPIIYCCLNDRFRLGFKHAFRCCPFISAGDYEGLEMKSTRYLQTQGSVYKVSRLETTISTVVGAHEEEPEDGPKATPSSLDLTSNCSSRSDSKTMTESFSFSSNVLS

Row | SMILES | IC50 | inhibition at 0.0001 µM (at 0.1 nM, 125I-substance P binding to human NK1R)
1 | Cc1ccccc1[C@H]1[C@@H]2CNC[C@H]2CC[C@@H]1O[C@H](CO)c1cc(C(F)(F)F)cc(C(F)(F)F)c1 [Example 2, (2S)-2-[3,5-bis(trifluoromethyl)phenyl]-2-{[(3aR,4R,5S,7aS)-4-(2-methylphenyl)octahydro-1H-isoindol-5-yl]oxy}ethanol] | 0.04 nM | 
2 | Cc1ccccc1[C@H]1[C@@H]2CN(C3=CC(=O)CC3)C[C@H]2CC[C@@H]1O[C@H](CO)c1cc(C(F)(F)F)cc(C(F)(F)F)c1 [Example 3, 3-[(3aR,4R,5S,7aS)-5-{(1S)-1-[3,5-bis(trifluoromethyl)phenyl]-2-hydroxyethoxy}-4-(2-methylphenyl)octahydro-2H-isoindol-2-yl]cyclopent-2-en-1-one] | 0.06 nM | 
3 | COC[C@@H](O[C@H]1CC[C@@H]2CN(C3=CC(=O)CC3)C[C@H]2[C@@H]1c1ccccc1C)c1cc(C(F)(F)F)cc(C(F)(F)F)c1 [Example 4, 3-[(3aR,4R,5S,7aS)-5-{(1S)-1-[3,5-bis(trifluoromethyl)phenyl]-2-methoxyethoxy}-4-(2-methylphenyl)octahydro-2H-isoindol-2-yl]cyclopent-2-en-1-one] | 0.1 nM | 
4 | Cc1ccccc1[C@H]1[C@@H]2CN(C3=NC(=O)CO3)C[C@H]2CC[C@@H]1O[C@H](CO)c1cc(C(F)(F)F)cc(C(F)(F)F)c1 [Example 5, 2-[(3aR,4R,5S,7aS)-5-{(1S)-1-[3,5-bis(trifluoromethyl)phenyl]-2-hydroxyethoxy}-4-(2-methylphenyl)octahydro-2H-isoindol-2-yl]-1,3-oxazol-4(5H)-one] | 0.06 nM | 
5 | Cc1ccccc1[C@H]1[C@@H]2CN(C(=O)N(C)C)C[C@H]2CC[C@@H]1O[C@H](CO)c1cc(C(F)(F)F)cc(C(F)(F)F)c1 [Example 6, (3aR,4R,5S,7aS)-5-{(1S)-1-[3,5-bis(trifluoromethyl)phenyl]-2-hydroxyethoxy}-N,N-dimethyl-4-(2-methylphenyl)octahydro-2H-isoindole-2-carboxamide] | 0.03 nM | 
6 | Cc1ccccc1[C@H]1[C@@H]2CN(C(=O)C(C)C)C[C@H]2CC[C@@H]1O[C@H](CO)c1cc(C(F)(F)F)cc(C(F)(F)F)c1 [Example 7, (2S)-2-[3,5-bis(trifluoromethyl)phenyl]-2-{[(3aR,4R,5S,7aS)-2-isobutyryl-4-(2-methylphenyl)octahydro-1H-isoindol-5-yl]oxy}ethanol] | 0.08 nM | 
7 | O=C1COC(N2C[C@H]3CC[C@H](O[C@H](CO)c4cc(C(F)(F)F)cc(C(F)(F)F)c4)[C@@H](c4ccc(F)cc4)[C@@H]3C2)=N1 [Example 8] | 0.03 nM | 
8 | O=C1C=C(N2C[C@H]3CC[C@H](O[C@H](CO)c4cc(C(F)(F)F)cc(C(F)(F)F)c4)[C@@H](c4ccc(F)cc4)[C@@H]3C2)CC1 [Example 9] | 0.09 nM | 

Continued, values first:

Row | IC50 | inhibition at 0.0001 µM (at 0.1 nM, 125I-substance P binding to human NK1R) | SMILES
9 | 0.03 nM |  | Cc1cc(F)ccc1[C@H]1[C@@H]2CN(C3=NC(=O)CO3)C[C@H]2CC[C@@H]1O[C@H](CO)c1cc(C(F)(F)F)cc(C(F)(F)F)c1 [Example 10]
10 | 0.03 nM |  | Cc1cc(F)ccc1[C@H]1[C@@H]2CN(C3=CC(=O)CC3)C[C@H]2CC[C@@H]1O[C@H](CO)c1cc(C(F)(F)F)cc(C(F)(F)F)c1 [Example 11]
11 | 0.07 nM |  | Cc1ccccc1[C@H]1[C@@H]2CN(C(=O)C(C)(C)C)C[C@H]2CC[C@@H]1O[C@H](CO)c1cc(C(F)(F)F)cc(C(F)(F)F)c1 [Example 12]
12 | 0.06 nM |  | Cc1ccccc1[C@H]1[C@@H]2CN(C(=O)C3CC3)C[C@H]2CC[C@@H]1O[C@H](CO)c1cc(C(F)(F)F)cc(C(F)(F)F)c1 [Example 13]
13 | 0.46 nM |  | COC[C@@H](O[C@H]1CC[C@@H]2CN(C(=O)N(C)C)C[C@H]2[C@@H]1c1ccccc1C)c1cc(C(F)(F)F)cc(C(F)(F)F)c1 [Example 14]
14 | 0.35 nM |  | OC[C@@H](O[C@H]1CC[C@@H]2CNC[C@H]2[C@@H]1c1ccc(F)cc1)c1cc(C(F)(F)F)cc(C(F)(F)F)c1 [Example 16]
15 | 55 nM |  | O=C1C=C(N2C[C@H]3CC[C@H](O[C@@H](CO)c4cc(C(F)(F)F)cc(C(F)(F)F)c4)[C@@H](c4ccc(F)cc4)[C@@H]3C2)CC1 [Example 21]
16 | 2.2 nM |  | Cc1ccccc1[C@H]1[C@@H]2CNC[C@H]2CC[C@@H]1O[C@@H](CO)c1cc(C(F)(F)F)cc(C(F)(F)F)c1 [Example 22]
17 | 45 nM |  | Cc1ccccc1[C@H]1[C@@H]2CN(C(=O)C(C)(C)C)C[C@H]2CC[C@@H]1O[C@@H](CO)c1cc(C(F)(F)F)cc(C(F)(F)F)c1 [Example 24]
18 |  | 47% | OC[C@H](O[C@H]1CC[C@@H]2CNC[C@H]2[C@@H]1c1ccc(F)cc1)c1cc(C(F)(F)F)cc(C(F)(F)F)c1 [Example 27]
